Data reported in patent US20190194179A1, “ANTIBIOTIC COMPOUNDS” (DISCUVA LTD., priority 2016, published 2019).

Test system: Neisseria gonorrhoeae
Experiment: EC50 determination: plate-based broth growth assay (absorbance at 600 nm) of Neisseria gonorrhoeae
Assay type: cell-based
Conditions: absorbance 600 nm after 20 hours at 37° C./5% CO2, read-out: IC50 (Inhibitory concentration) against Neisseria gonorrhoeae
Method: Actively growing Neisseria gonorrhoeae on GC agar (based on; Spence et. al. (2008): Curr. Protoc. Microbiol. 8:4A.1.1-4A.1.26) plates are harvested and transferred to GC broth (based on; Spence et al (2008): Curr. Protoc. Microbiol. 8:4A.1.1-4A.1.26) to generate a liquid stock. This culture is allowed to establish and grow to mid-log phase (at 37° C./5% CO2), finally this culture is diluted (˜10^5 cells/ml) to generate a seed inoculum to establish plate-based broth assays. EC50 values were determined by assaying growth (absorbance read at 600 nm, after 20 hours at 37° C./5% CO2) of Neisseria gonorrhoeae across a 10-point dilution series of the test compound. The EC50 value is determined from transformed data to identify the concentration of compound giving a 50% response relative to control samples (no compound).

With `FC(F)(F)c1ccc2oc(Nc3nccs3)nc2c1` [Example 6, N-(Thiazol-2-yl)-5-(trifluoromethyl)benzo[d]oxazol-2-amine] the IC50 was no more than 1000 nM.
With `Cc1cc(Nc2nc3ccc(Cl)cc3o2)no1` [Example 172, 6-Chloro-N-(5-methylisoxazol-3-yl)benzo[d]oxazol-2-amine] the IC50 was no more than 1000 nM.
Work on `CCOC(=O)c1nnc(Nc2nc3cc(C(F)(F)F)ccc3n2C)o1` [Example 55, Ethyl 5-((1-methyl-5-(trifluoromethyl)-1H-benzo[d]imidazol-2-yl)amino)-1,3,4-oxadiazole-2-carboxylate] yielded an IC50 of no more than 1000 nM.
With `CN1CCC[C@@H]1c1nnc(Nc2nc3cc(C(F)(F)F)ccc3o2)o1` [Example 127, (R)-N-(5-(1-methylpyrrolidin-2-yl)-1,3,4-oxadiazol-2-yl)-5-(trifluoromethyl)benzo[d]oxazol-2-amine] the IC50 was no more than 1000 nM.
For `FC(F)(F)Oc1cc2oc(Nc3nnco3)nc2cc1Cl` [Example 191], the IC50 was no more than 100 nM.
`Cc1nnc(Nc2nc3c(Cl)cccc3o2)o1` [Example 119, 4-Chloro-N-(5-methyl-1,3,4-oxadiazol-2-yl)benzo[d]oxazol-2-amine] gave an IC50 of no more than 1000 nM.
`Fc1cc2nc(Nc3nnco3)oc2cc1F` [Example 48, 5,6-diFluoro-N-(1,3,4-oxadiazol-2-yl)benzo[d]oxazol-2-amine] was tested, and the IC50 was no more than 100 nM.
For `Cc1nnc(Nc2nc3cccc(Cl)c3o2)o1` [Example 39, 7-Chloro-N-(5-methyl-1,3,4-oxadiazol-2-yl)benzo[d]oxazol-2-amine], the IC50 was no more than 1000 nM.
With `Cc1cc2nc(Nc3nnco3)oc2cc1F` [Example 203, 6-Fluoro-5-methyl-N-(1,3,4-oxadiazol-2-yl)benzo[d]oxa-zol-2-amine] the IC50 was no more than 100 nM.
With `FC(F)(F)c1ccc2oc(Nc3nc4ccccc4o3)nc2c1` [Example 158, N-(Benzo[d]oxazol-2-yl)-5-(trifluoromethyl) benzo[d]oxazol-2-amine] the IC50 was no more than 100 nM.
`O=[N+]([O-])c1ccc2nc(Nc3nnco3)oc2c1` [Example 186, 6-Nitro-N-(1,3,4-oxadiazol-2-yl)benzo[d]ox-azol-2-amine] was tested, and the IC50 was no more than 10000 nM.
With `CC(C)c1nnc(Nc2nc3ccc(Cl)cc3o2)o1` [Example 214, 6-Chloro-N-(5-isopropyl-1,3,4-oxadiazol-2-yl)benzo[d]oxa-zol-2-amine] the IC50 was no more than 100 nM.
`FC(F)(F)c1ccc2oc(Nc3nnc[nH]3)nc2c1` [Example 116, N-(4H-1,2,4-Triazol-3-yl)-5-(trifluoromethyl)benzo[d]oxazol-2-amine] was tested, and the IC50 was no more than 1000 nM.
For `CCOC(=O)c1nnc(Nc2nc3cc(C(F)(F)F)c(Cl)cc3o2)o1` [Example 65, Ethyl 5-((6-chloro-5-(trifluoromethyl)benzo[d]oxazol-2-yl)amino)-1,3,4-oxadiazole-2-carboxylate], the IC50 was no more than 100 nM.
`FC(F)(F)Oc1cc2nc(Nc3nnco3)oc2cc1Cl` [Example 205, 6-Chloro-N-(1,3,4-oxadiazol-2-yl)-5-(trifluoro-methoxy)benzo [d]ox-azol-2-amine] showed an IC50 of no more than 1000 nM.
With `Cc1nnc(Nc2nc3cc(C(F)(F)F)c(Cl)cc3[nH]2)[nH]1` [Example 153, 6-Chloro-N-(5-methyl-4H-1,2,4-triazol-3-yl)-5-(trifluoromethyl)-1H-benzo[d]imidazol-2-amine] the IC50 was no more than 10000 nM.
Compound `CN1CCN(c2cnc(Nc3nc4cc(C(F)(F)F)ccc4o3)s2)CC1` [Example 32, N-(5-(4-Methylpiperazin-1-yl)thiazol-2-yl)-5-(trifluoromethyl)benzo[d]oxazol-2-amine] has an IC50 of no more than 1000 nM.
For `Fc1cc2oc(Nc3nnco3)nc2cc1OC(F)(F)F` [Example 207, 6-Fluoro-N-(1,3,4-oxadiazol-2-yl)-5-(trifluoromethoxy) benzo[d]ox-azol-2-amine], the IC50 was no more than 100 nM.
`O=C(NC1CC1)c1csc(Nc2nc3ccccc3o2)n1` [Example 15, 2-(Benzo[d]oxazol-2-ylamino)-N-cyclopropylthiazole-4-carboxamide] was tested, and the IC50 was no more than 1000 nM.
With `Cc1nnc(Nc2nc3cc(C(F)(F)F)ccc3o2)o1` [Example 22, N-(5-Methyl-1,3,4-oxadiazol-2-yl)-5-(trifluoromethyl)benzo[d]oxazol-2-amine] the IC50 was no more than 1000 nM.
